Here are results for twelve compounds from patent US7820804B2, “Fluoroglycoside derivatives of pyrazoles, medicaments containing these compounds, and the use thereof” (Sanofi-Aventia Deutschland GmbH, priority 2004, dated 2010).

The structures appear in SMILES notation.

The target in this experiment is T1, human sodium-dependent glucose transporter 1 (SGLT1, SLC5A1) (Homo sapiens, UniProt P13866).
T1 construct: Bases 11 to 2005 correspond to the complete coding region of human SGLT1; expressed in transfected cells
T1 sequence (P13866 1-664): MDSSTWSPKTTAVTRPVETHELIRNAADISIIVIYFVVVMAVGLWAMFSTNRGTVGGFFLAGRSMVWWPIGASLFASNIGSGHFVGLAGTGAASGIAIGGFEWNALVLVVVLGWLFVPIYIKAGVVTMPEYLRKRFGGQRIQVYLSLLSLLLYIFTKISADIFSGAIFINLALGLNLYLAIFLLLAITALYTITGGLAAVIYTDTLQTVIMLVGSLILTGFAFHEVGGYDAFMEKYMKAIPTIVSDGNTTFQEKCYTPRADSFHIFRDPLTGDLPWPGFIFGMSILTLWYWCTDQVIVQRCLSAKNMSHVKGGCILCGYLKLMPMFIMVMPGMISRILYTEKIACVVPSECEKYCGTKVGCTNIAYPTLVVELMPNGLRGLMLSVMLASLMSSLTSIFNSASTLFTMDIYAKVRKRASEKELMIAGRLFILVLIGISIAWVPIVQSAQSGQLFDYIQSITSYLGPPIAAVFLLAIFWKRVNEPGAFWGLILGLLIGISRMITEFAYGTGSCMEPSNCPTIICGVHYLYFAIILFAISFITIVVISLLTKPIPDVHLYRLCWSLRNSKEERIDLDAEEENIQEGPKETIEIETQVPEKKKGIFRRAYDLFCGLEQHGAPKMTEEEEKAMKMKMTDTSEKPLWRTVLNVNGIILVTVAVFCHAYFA
Briefly: Inhibition of methyl α-D-glucopyranoside (α-MDG) uptake in CHO-TRex-hSGLT1 cells. Format: cell-based. To be noted: in vitro uptake of methyl α-D-glucopyranoside, 50 μM α-MDG, 30 min at room temperature. The text has this:
A further method for testing the activity of the compounds is the inhibition of the transport activity of the human sodium-dependent glucose transporter 1 (SGLT1, SLC5A1) in vitro:
1. Cloning of an Expression Vector for Human SGLT1
The cDNA for human SGLT1 was introduced into the pcDNA4/TO vector (Invitrogen) by standard methods of molecular biology as described in Sambrook et al. (Sambrook et al., Molecular Cloning, A Laboratory Manual, 2nd Edition). […] Bases 11 to 2005 correspond to the complete coding region of human SGLT1.
2. Preparation of a Recombinant Cell Line with Inducible Expression of Human SGLT1
The expression vector for human SGLT1 was introduced into CHO-TRex cells (Invitrogen) by means of FuGene6 lipofection (Roche). To select single cell clones, 600 μg/mI Zeocin (Invitrogen) was added to the cell culture medium (Nutrient Mixture F-12 (Ham), (Invitrogen) supplemented with 10% fetal calf serum (BD Biosciences), 10 μg/ml blasticidin S (CN Biosciences), 100 units/ml penicillin, 100 units/ml streptomycin). The functionality of the single cell clones resulting from the selection was tested via their uptake activity for radiolabeled methyl α-D-glucopyranoside. The cell clone with the greatest uptake activity for methyl α-D-glucopyranoside, referred to as CHO-TRex-hSGLT1 hereinafter, was selected for further experiment, and cultivation was continued in the presence of 600 μg/ml of zeocin.
3. Measurement of the Inhibitory Effect of Test Substances on the Uptake of Methyl […]-D-glucopyranoside ([…]-MDG)
CHO-TRex-hSGLT1 cells were seeded in a concentration of 50 000 cells per well in Cytostar-T scintillating 96-well plates (Amersham Biosciences) in cell culture medium and cultivated for 24 h. Expression of the recombinant human SGLT1 was induced by adding 1 pg/mI tetracyclin for a further 24 h. For α-MDG uptake experiments, the cells were washed with PBS and then starved (PBS supplemented with 10% fetal calf serum) at 37° C. for one hour. After a further washing step with transport assay buffer (140 mM sodium chloride, 2 mM potassium chloride, 1 mM magnesium chloride, 1 mM calcium chloride, 10 mM HEPES/Tris, pH 7.5), the cells were incubated either in the absence or presence of test substances varying in concentration at room temperature for 15 min. The test substances were diluted appropriately in transport assay buffer (40 μl/well) starting from a 10 mM stock solution in dimethyl sulfoxide.
The assay was then started by adding 10 μl of a mixture of radiolabeled methyl α-D-[U-^14C]glucopyranoside (Amersham) and unlabeled methyl α-D-glucopyranoside (Acros). The final concentration of methyl α-D-glucopyranoside in the assay was 50 μM. After an incubation time of 30 min at room temperature, the reaction was stopped by adding 50 µl/well of 10 mM methyl α-D-glucopyranoside in transport assay buffer (4° C.), and the radioactivity uptake by the cells was determined in a MicroBeta Scintillation Microplate Reader (Wallac). The half-maximum inhibitory effect of the test substances (IC50) was determined in the following way: • 1. Establishment of the value for 0% inhibition. This is the measurement in the absence of substance, measured in sodium-containing transport assay buffer. • 2. Establishment of the value for 100% inhibition. This is the measurement in the absence of substance, measured in sodium-free transport assay buffer (140 mM choline chloride, 2 mM potassium chloride, 1 mM magnesium chloride, 1 mM calcium chloride, 10mM HEPES/Tris, pH7.5). • 3. Calculation of the percentage inhibitions for the measurements carried out in the presence of various concentrations of test substance. It was then possible to ascertain therefrom the concentration of test substance which reduced the uptake of methyl α-D-glucopyranoside by 50% (IC50).
IC50 values of test substances (μM) [in vitro testing of the uptake of methyl α-D-glucopyranoside]
What is called IC50 is the concentration that gives 50% inhibition. Lower therefore signals inhibition by little substance. As to `CC(C)c1[nH]nc(OC2OC(CO)C(F)C(O)C2O)c1Cc1ccc(CCCNC(=O)N2CCN(C)CC2)cc1` (stereo not drawn) [Example 36], the IC50 is 0.043 µM. Take `CC(C)c1[nH]nc(OC2OC(CO)C(F)C(O)C2O)c1Cc1ccc(CCC(=O)NC(C)(C)CO)cc1` (stereo not drawn) [Example 18]: the IC50 was determined as 0.08 µM.

The compound `CC(C)c1[nH]nc(O[C@@H]2O[C@H](CO)[C@@H](F)[C@H](O)[C@H]2O)c1Cc1ccc(C(=O)NCC(N)=O)cc1` [Example 33] registered an IC50 of 0.07 µM. `CC(C)c1[nH]nc(OC2OC(CO)C(F)C(O)C2O)c1Cc1ccc(CCCC(=O)N2CCN(C)CC2)cc1` (stereo not drawn) [Example 12] returned an IC50 of 0.139 µM. The compound `CC(C)c1[nH]nc(OC2OC(CO)C(F)C(O)C2O)c1Cc1ccc(CCCC(=O)NCCCN)cc1` (stereo not drawn) [Example 22] registered a half-inhibitory concentration (IC50) of 0.144 µM. Take `CC(C)c1[nH]nc(OC2OC(CO)C(F)C(O)C2O)c1Cc1ccc(CCCC(=O)N[C@@H](CO)C(N)=O)cc1` (stereo partly drawn) [Example 9]: the IC50 came out at 0.081 µM. Compared with the last compound, the IC50 is about 1.8-fold lower.

`CCCNC(=O)NCCCc1ccc(Cc2c(OC3OC(CO)C(F)C(O)C3O)n[nH]c2C)cc1` (stereo not drawn) [Example 31] registered a concentration for half-maximal inhibition (IC50) of 0.252 µM. As for `CC(C)c1[nH]nc(OC2OC(CO)C(F)C(O)C2O)c1Cc1ccc(CCCC(=O)N[C@@H]2O[C@H](CO)[C@@H](O)[C@H](O)[C@H]2O)cc1` (stereo partly drawn) [Example 24], inhibition was half-maximal at 0.208 µM (IC50). On to `CC(C)c1[nH]nc(OC2OC(CO)C(F)C(O)C2O)c1Cc1ccc(/C=C/CC(=O)NCCC(N)=O)cc1` (stereo not drawn) [Example 3], for which it took 0.043 µM to reach half-maximal inhibition (IC50). For `CC(C)c1[nH]nc(OC2OC(CO)C(F)C(O)C2O)c1Cc1ccc(CCCC(=O)N2CCCC2)cc1` (stereo not drawn) [Example 15], the IC50 stood at 0.17 µM. Under `CC(C)c1[nH]nc(OC2OC(CO)C(F)C(O)C2O)c1Cc1ccc(CCCC(=O)NC(CO)(CO)CO)cc1` (stereo not drawn) [Example 21] stands 0.047 µM; under `Cc1[nH]nc(OC2OC(CO)C(F)C(O)C2O)c1Cc1ccc(CCCC(=O)NCCC(N)=O)cc1` (stereo not drawn) [Example 6], 0.133 µM.
